In patent US20250064809A1, “Inhibitors of Mutant RET Kinases for use in Treating Cancer” (Stemline Therapeutics, Inc., priority 2021, published 2025):

Tests used:
Ba/F3 KIF5B-RET-G810C = experiment: In vitro cell viability assay (CellTiter-Glo); assay type: cell-based; details: Mus musculus, BaF3, 72 h, 3 days
Ba/F3 KIF5B-RET-G810S = experiment: In vitro cell viability assay (CellTiter-Glo); assay type: cell-based; details: Mus musculus, BaF3, 72 h, 3 days
[1] = system: Ba/F3 cells expressing KIF5B-RET with a G810 RET mutant domain; experiment: In vitro cell viability assay, mutant RET kinase cell lines compared to wild type; assay type: cell-based, mouse; details: Ba/F3 KIF5B-RET G810R, G810C, G810S versus wild type
Ba/F3 KIF5B-RET = experiment: In vitro cell viability assay (CellTiter-Glo); assay type: cell-based; details: Mus musculus, BaF3, 72 h; Ba/F3 KIF5B-RET (wild type RET), 3 days
Ba/F3 KIF5B-RET-G810R = experiment: In vitro cell viability assay (CellTiter-Glo); assay type: cell-based; details: Mus musculus, BaF3, 72 h, 3 days

| IC50 (Ba/F3 KIF5B-RET-G810C) [nM] | IC50 (Ba/F3 KIF5B-RET-G810S) [nM] | increase in IC50 values against mutant RET kinase cell lines as compared to wild type RET kinase cell lines [1] | IC50 (Ba/F3 KIF5B-RET) [nM] | IC50 (Ba/F3 KIF5B-RET-G810R) [nM] | SMILES |
| --- | --- | --- | --- | --- | --- |
| 1080 | 204 | 8-44 fold | 24.4 | 986 | COc1ccc(CN2C3CC2CN(c2ccc(-c4cc(OCC(C)(C)O)cn5ncc(C#N)c45)cn2)C3)cn1 [Selpercatinib, selpercatinib] |
| 551 | 90.5 | 3-44 fold | 29.6 | 1300 | CO[C@]1(C(=O)N[C@@H](C)c2ccc(-n3cc(F)cn3)nc2)CC[C@H](c2nc(C)cc(Nc3cc(C)[nH]n3)n2)CC1 [Pralsetinib, pralsetinib] |
